Biological target: T1, full length p110α/p85α (Homo sapiens, UniProt P42336)
T1 construct: Full-length human p110α was expressed either in a complex with full-length human p85α (for HTS, biochemistry and HDX-MS); 6xHis tag followed by TEV protease site (N); host or cells: Spodoptera frugiperda Sf9, baculovirus
Assay: HDX-MS
Format: binding
Protocol: Sample preparation: HDX-MS experiments were carried out as described previously. […] In total, three biological replicates, i.e. three separate protein preparations, each with exchange experiments carried out in triplicate were conducted. Data presented in the manuscript is a single biological replicate. Data acquisition and analysis were as follows: Each sample was thawed and injected onto an M-Class Acquity UPLC with HDX Technology (Waters) kept at 0.1°C. Proteins were digested in-line using an Enzymate Pepsin Column (Waters, #186007233) at 15°C for 2 min at 200 μl/min. Peptic peptides were then eluted onto an Acquity UPLC BEH C18 Column (Waters, #186002346) equilibrated in Pepsin-A buffer (0.1% formic acid) and separated using a 5-35% gradient of Pepsin-B buffer (0.1% formic acid, 99% acetonitrile) over 7 min at a flowrate of 40 μl/min. Data were collected on a Waters Cyclic IMS, with an electrospray ionisation source, from 50-2000 m/z. Data were collected in the HDMS^E mode. A single pass of the cyclic IMS was conducted. A “blank” sample of protein dilution buffer with quench was run between samples, and carry-over of peptides was routinely monitored. Five replicates were used to identify non-deuterated peptides. Criteria used to include peptides in the HDX-MS dataset were: minimum intensity 5000, minimum sequence length 5, maximum sequence length 25, a minimum of 3 fragment ions, a minimum of 0.1 products per amino acid, a minimum score of 6.62, a maximum MH+ Error of 10 ppm, identification in at least two datasets with a retention time RSD of less than 10%. Data was analysed using Protein Lynx Global Server (Waters) and DynamX (Waters). All peptides were manually inspected for EX1 kinetics and sufficient quality of the peptide envelope. Data quality, experiment design, and reporting of data meets the criteria as determined by the HDX-MS community. Uptake files were created using Baryonyx. Data are available via ProteomeXchange with identifier PXD037721.

T1 sequence (P42336 whole entry): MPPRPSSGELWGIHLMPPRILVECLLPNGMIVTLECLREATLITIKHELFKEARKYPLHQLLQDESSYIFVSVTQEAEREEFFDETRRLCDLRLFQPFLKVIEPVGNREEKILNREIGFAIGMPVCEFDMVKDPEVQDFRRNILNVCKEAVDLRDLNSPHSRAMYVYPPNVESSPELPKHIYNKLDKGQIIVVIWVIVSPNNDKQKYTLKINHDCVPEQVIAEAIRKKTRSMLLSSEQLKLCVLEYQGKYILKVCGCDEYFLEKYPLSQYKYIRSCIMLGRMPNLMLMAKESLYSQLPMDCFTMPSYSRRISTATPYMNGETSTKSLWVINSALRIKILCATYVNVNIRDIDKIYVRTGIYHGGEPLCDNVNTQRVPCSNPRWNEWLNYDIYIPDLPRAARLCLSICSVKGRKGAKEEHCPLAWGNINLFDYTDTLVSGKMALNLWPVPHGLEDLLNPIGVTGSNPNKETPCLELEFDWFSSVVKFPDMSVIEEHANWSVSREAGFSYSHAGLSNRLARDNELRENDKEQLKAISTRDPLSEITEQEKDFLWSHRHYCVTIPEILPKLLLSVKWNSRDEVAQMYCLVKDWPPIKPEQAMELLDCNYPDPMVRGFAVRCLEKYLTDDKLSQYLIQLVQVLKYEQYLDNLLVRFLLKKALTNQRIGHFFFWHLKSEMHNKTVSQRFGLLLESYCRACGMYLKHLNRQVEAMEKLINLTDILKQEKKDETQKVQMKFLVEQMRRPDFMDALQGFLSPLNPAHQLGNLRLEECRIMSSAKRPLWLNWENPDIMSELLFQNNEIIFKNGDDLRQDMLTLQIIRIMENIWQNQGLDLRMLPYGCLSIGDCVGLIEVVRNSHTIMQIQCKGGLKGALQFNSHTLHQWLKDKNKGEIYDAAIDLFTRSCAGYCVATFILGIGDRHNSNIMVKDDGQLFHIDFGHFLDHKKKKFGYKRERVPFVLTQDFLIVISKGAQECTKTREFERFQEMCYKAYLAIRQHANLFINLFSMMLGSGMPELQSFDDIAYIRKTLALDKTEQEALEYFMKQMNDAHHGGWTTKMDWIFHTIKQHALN
T1 sequence (P27986 whole entry partner): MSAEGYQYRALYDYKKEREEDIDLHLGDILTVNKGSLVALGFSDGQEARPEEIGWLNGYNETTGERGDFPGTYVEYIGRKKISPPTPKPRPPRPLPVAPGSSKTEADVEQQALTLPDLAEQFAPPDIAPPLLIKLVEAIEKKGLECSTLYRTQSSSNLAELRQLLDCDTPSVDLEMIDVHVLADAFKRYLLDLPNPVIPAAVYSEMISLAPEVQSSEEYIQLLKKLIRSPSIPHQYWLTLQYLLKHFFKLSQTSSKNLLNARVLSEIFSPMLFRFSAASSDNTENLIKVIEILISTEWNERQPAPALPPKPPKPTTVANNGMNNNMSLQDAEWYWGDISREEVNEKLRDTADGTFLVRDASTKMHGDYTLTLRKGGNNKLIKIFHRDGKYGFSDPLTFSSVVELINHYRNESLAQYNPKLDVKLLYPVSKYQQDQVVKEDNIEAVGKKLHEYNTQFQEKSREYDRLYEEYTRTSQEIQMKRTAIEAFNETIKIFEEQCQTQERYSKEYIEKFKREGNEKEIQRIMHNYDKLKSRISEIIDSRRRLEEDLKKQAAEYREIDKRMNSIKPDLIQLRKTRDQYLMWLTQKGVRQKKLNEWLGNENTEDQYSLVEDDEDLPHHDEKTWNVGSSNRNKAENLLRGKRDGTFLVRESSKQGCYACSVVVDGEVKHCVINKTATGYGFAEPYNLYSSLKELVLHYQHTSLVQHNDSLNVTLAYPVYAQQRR

SMILES: CCN1CCN(c2ccc(Nc3cc(Nc4cccc5c4N(C(C)=O)CC5)ccn3)cc2)CC1 [Compound 1938]
- HDX difference, percentage (PK3CA_HUMAN peptide 487-498, time column 5 of 5): -0.361%
- HDX difference, percentage (PK3CA_HUMAN peptide 496-507, time column 1 of 5, deuterium exchange time 0.005): -1.7%
- HDX difference, percentage (PK3CA_HUMAN peptide 496-507, time column 2 of 5, deuterium exchange time 0.05): 0.429%
- HDX difference, percentage (PK3CA_HUMAN peptide 496-507, time column 3 of 5, deuterium exchange time 0.5): 0.5%
- HDX difference, percentage (PK3CA_HUMAN peptide 496-507, time column 4 of 5, deuterium exchange time 5): 0.6%
- HDX difference, percentage (PK3CA_HUMAN peptide 496-507, time column 5 of 5): 0.121%
- HDX difference, percentage (PK3CA_HUMAN peptide 508-520, time column 1 of 5, deuterium exchange time 0.005): -0.644%
- HDX difference, percentage (PK3CA_HUMAN peptide 508-520, time column 2 of 5, deuterium exchange time 0.05): 1.9%
- HDX difference, percentage (PK3CA_HUMAN peptide 508-520, time column 3 of 5, deuterium exchange time 0.5): 1.4%
- HDX difference, percentage (PK3CA_HUMAN peptide 508-520, time column 4 of 5, deuterium exchange time 5): 1.5%
- HDX difference, percentage (PK3CA_HUMAN peptide 508-520, time column 5 of 5): 0.952%
- HDX difference, percentage (PK3CA_HUMAN peptide 538-549, time column 1 of 5, deuterium exchange time 0.005): -0.8%
- HDX difference, percentage (PK3CA_HUMAN peptide 538-549, time column 2 of 5, deuterium exchange time 0.05): 1.0%
- HDX difference, percentage (PK3CA_HUMAN peptide 538-549, time column 3 of 5, deuterium exchange time 0.5): 0.441%
- HDX difference, percentage (PK3CA_HUMAN peptide 538-549, time column 4 of 5, deuterium exchange time 5): -1.1%
- HDX difference, percentage (PK3CA_HUMAN peptide 538-549, time column 5 of 5): -0.257%
- HDX difference, percentage (PK3CA_HUMAN peptide 538-554, time column 1 of 5, deuterium exchange time 0.005): -1.3%
- HDX difference, percentage (PK3CA_HUMAN peptide 538-554, time column 2 of 5, deuterium exchange time 0.05): 0.7%
- HDX difference, percentage (PK3CA_HUMAN peptide 538-554, time column 3 of 5, deuterium exchange time 0.5): 0.47%
- HDX difference, percentage (PK3CA_HUMAN peptide 538-554, time column 4 of 5, deuterium exchange time 5): -1.1%
- HDX difference, percentage (PK3CA_HUMAN peptide 538-554, time column 5 of 5): -0.74%
- HDX difference, percentage (PK3CA_HUMAN peptide 555-570, time column 1 of 5, deuterium exchange time 0.005): -1.2%
- HDX difference, percentage (PK3CA_HUMAN peptide 555-570, time column 2 of 5, deuterium exchange time 0.05): 0.462%
- HDX difference, percentage (PK3CA_HUMAN peptide 555-570, time column 3 of 5, deuterium exchange time 0.5): 0.2%
- HDX difference, percentage (PK3CA_HUMAN peptide 555-570, time column 4 of 5, deuterium exchange time 5): -1.4%
- HDX difference, percentage (PK3CA_HUMAN peptide 555-570, time column 5 of 5): -2.6%
- HDX difference, percentage (PK3CA_HUMAN peptide 571-583, time column 1 of 5, deuterium exchange time 0.005): -0.6%
- HDX difference, percentage (PK3CA_HUMAN peptide 571-583, time column 2 of 5, deuterium exchange time 0.05): 0.4%
- HDX difference, percentage (PK3CA_HUMAN peptide 571-583, time column 3 of 5, deuterium exchange time 0.5): 0.167%
- HDX difference, percentage (PK3CA_HUMAN peptide 571-583, time column 4 of 5, deuterium exchange time 5): -0.378%
- HDX difference, percentage (PK3CA_HUMAN peptide 571-583, time column 5 of 5): -1.4%
- HDX difference, percentage (PK3CA_HUMAN peptide 582-596, time column 1 of 5, deuterium exchange time 0.005): -1.6%
- HDX difference, percentage (PK3CA_HUMAN peptide 582-596, time column 2 of 5, deuterium exchange time 0.05): 0.374%
- HDX difference, percentage (PK3CA_HUMAN peptide 582-596, time column 3 of 5, deuterium exchange time 0.5): 0.262%
- HDX difference, percentage (PK3CA_HUMAN peptide 582-596, time column 4 of 5, deuterium exchange time 5): 0.76%
- HDX difference, percentage (PK3CA_HUMAN peptide 582-596, time column 5 of 5): 0.0749%
- HDX difference, percentage (PK3CA_HUMAN peptide 597-606, time column 1 of 5, deuterium exchange time 0.005): 0.175%
- HDX difference, percentage (PK3CA_HUMAN peptide 597-606, time column 2 of 5, deuterium exchange time 0.05): 1.6%
- HDX difference, percentage (PK3CA_HUMAN peptide 597-606, time column 3 of 5, deuterium exchange time 0.5): 0.5%
- HDX difference, percentage (PK3CA_HUMAN peptide 597-606, time column 4 of 5, deuterium exchange time 5): 1.4%
- HDX difference, percentage (PK3CA_HUMAN peptide 597-606, time column 5 of 5): 1.3%
- HDX difference, percentage (PK3CA_HUMAN peptide 610-637, time column 1 of 5, deuterium exchange time 0.005): -0.237%
- HDX difference, percentage (PK3CA_HUMAN peptide 610-637, time column 2 of 5, deuterium exchange time 0.05): 0.13%
- HDX difference, percentage (PK3CA_HUMAN peptide 610-637, time column 3 of 5, deuterium exchange time 0.5): 0.2%
- HDX difference, percentage (PK3CA_HUMAN peptide 610-637, time column 4 of 5, deuterium exchange time 5): 0.257%
- HDX difference, percentage (PK3CA_HUMAN peptide 610-637, time column 5 of 5): 0.128%
- HDX difference, percentage (PK3CA_HUMAN peptide 626-638, time column 1 of 5, deuterium exchange time 0.005): -1.2%
- HDX difference, percentage (PK3CA_HUMAN peptide 626-638, time column 2 of 5, deuterium exchange time 0.05): 1.0%
- HDX difference, percentage (PK3CA_HUMAN peptide 626-638, time column 3 of 5, deuterium exchange time 0.5): 0.459%
- HDX difference, percentage (PK3CA_HUMAN peptide 626-638, time column 4 of 5, deuterium exchange time 5): -0.333%
- HDX difference, percentage (PK3CA_HUMAN peptide 626-638, time column 5 of 5): -0.147%
- HDX difference, percentage (PK3CA_HUMAN peptide 647-658, time column 1 of 5, deuterium exchange time 0.005): -0.361%
- HDX difference, percentage (PK3CA_HUMAN peptide 647-658, time column 2 of 5, deuterium exchange time 0.05): 0.6%
- HDX difference, percentage (PK3CA_HUMAN peptide 647-658, time column 3 of 5, deuterium exchange time 0.5): 1.0%
- HDX difference, percentage (PK3CA_HUMAN peptide 647-658, time column 4 of 5, deuterium exchange time 5): 1.2%
- HDX difference, percentage (PK3CA_HUMAN peptide 647-658, time column 5 of 5): -0.0483%
- HDX difference, percentage (PK3CA_HUMAN peptide 661-687, time column 1 of 5, deuterium exchange time 0.005): -1.5%
- HDX difference, percentage (PK3CA_HUMAN peptide 661-687, time column 2 of 5, deuterium exchange time 0.05): 0.4%
- HDX difference, percentage (PK3CA_HUMAN peptide 661-687, time column 3 of 5, deuterium exchange time 0.5): 0.466%
- HDX difference, percentage (PK3CA_HUMAN peptide 661-687, time column 4 of 5, deuterium exchange time 5): 0.23%
- HDX difference, percentage (PK3CA_HUMAN peptide 661-687, time column 5 of 5): -0.271%
- HDX difference, percentage (PK3CA_HUMAN peptide 688-693, time column 1 of 5, deuterium exchange time 0.005): -3.1%
- HDX difference, percentage (PK3CA_HUMAN peptide 688-693, time column 2 of 5, deuterium exchange time 0.05): 0.6%
- HDX difference, percentage (PK3CA_HUMAN peptide 688-693, time column 3 of 5, deuterium exchange time 0.5): -0.142%
- HDX difference, percentage (PK3CA_HUMAN peptide 688-693, time column 4 of 5, deuterium exchange time 5): -0.352%
- HDX difference, percentage (PK3CA_HUMAN peptide 688-693, time column 5 of 5): -0.379%
- HDX difference, percentage (PK3CA_HUMAN peptide 692-703, time column 1 of 5, deuterium exchange time 0.005): -0.563%
- HDX difference, percentage (PK3CA_HUMAN peptide 692-703, time column 2 of 5, deuterium exchange time 0.05): 0.65%
- HDX difference, percentage (PK3CA_HUMAN peptide 692-703, time column 3 of 5, deuterium exchange time 0.5): 0.8%
- HDX difference, percentage (PK3CA_HUMAN peptide 692-703, time column 4 of 5, deuterium exchange time 5): 0.4%
- HDX difference, percentage (PK3CA_HUMAN peptide 692-703, time column 5 of 5): 0.166%
- HDX difference, percentage (PK3CA_HUMAN peptide 704-709, time column 1 of 5, deuterium exchange time 0.005): 0.4%
- HDX difference, percentage (PK3CA_HUMAN peptide 704-709, time column 2 of 5, deuterium exchange time 0.05): 0.074%
- HDX difference, percentage (PK3CA_HUMAN peptide 704-709, time column 3 of 5, deuterium exchange time 0.5): -1.2%
- HDX difference, percentage (PK3CA_HUMAN peptide 704-709, time column 4 of 5, deuterium exchange time 5): -0.7%
- HDX difference, percentage (PK3CA_HUMAN peptide 704-709, time column 5 of 5): 0.531%
